Measurements from ChEMBL document CHEMBL1155271, “Synthesis, crystal structures and antibacterial activity studies of aza-derivatives of phytoalexin from cotton plant--gossypol” (2009).
≈ marks a conversion by molar mass, not a printed value. Calls of active or inactive are those of the source. No cut-off for these calls is given here.

What was measured:
Assay type in all cases: functional
[1] = system: Staphylococcus aureus; test: Antimicrobial activity against Methicillin susceptible Staphylococcus aureus 213/7 by twofold dilution technique
[2] = system: Staphylococcus aureus; test: Antimicrobial activity against Methicillin susceptible Staphylococcus aureus 237/7 by twofold dilution technique
[3] = system: Staphylococcus aureus; test: Antimicrobial activity against Methicillin susceptible Staphylococcus aureus 238/7 by twofold dilution technique
[4] = system: Staphylococcus aureus; test: Antimicrobial activity against Methicillin susceptible Staphylococcus aureus 239/7 by twofold dilution technique
[5] = system: Staphylococcus aureus; test: Antimicrobial activity against Methicillin susceptible Staphylococcus aureus 242/7 by twofold dilution technique
[6] = system: Staphylococcus aureus; test: Antimicrobial activity against Methicillin susceptible Staphylococcus aureus 243/7 by twofold dilution technique
[7] = system: Staphylococcus aureus; test: Antimicrobial activity against methicillin-resistant Staphylococcus aureus 140/6 by twofold dilution technique
[8] = system: Staphylococcus aureus; test: Antimicrobial activity against methicillin-resistant Staphylococcus aureus 141/6 by twofold dilution technique
[9] = system: Staphylococcus aureus; test: Antimicrobial activity against methicillin-resistant Staphylococcus aureus 143/6 by twofold dilution technique
[10] = system: Staphylococcus aureus; test: Antimicrobial activity against methicillin-resistant Staphylococcus aureus 144/6 by twofold dilution technique
[11] = system: Staphylococcus aureus; test: Antimicrobial activity against methicillin-resistant Staphylococcus aureus 146/6 by twofold dilution technique
[12] = system: Staphylococcus aureus; test: Antimicrobial activity against methicillin-resistant Staphylococcus aureus 200/7 by twofold dilution technique
[13] = system: Staphylococcus aureus; test: Antimicrobial activity against methicillin-resistant Staphylococcus aureus 217/7 by twofold dilution technique
[14] = system: Staphylococcus aureus; test: Antimicrobial activity against methicillin-resistant Staphylococcus aureus 218/7 by twofold dilution technique
[15] = system: Staphylococcus aureus; test: Antimicrobial activity against methicillin-resistant Staphylococcus aureus 236/7 by twofold dilution technique
[16] = system: Staphylococcus aureus; test: Antimicrobial activity against Staphylococcus aureus NCTC 4163 at 400 ug after 18 hrs by disk diffusion method; details: NCTC 4163, 18 h, read-out: DIZ
[17] = system: Staphylococcus epidermidis; test: Antimicrobial activity against Staphylococcus epidermidis ATCC 12228 at 400 ug after 18 hrs by disk diffusion method; details: ATCC 12228, 18 h, read-out: DIZ
[18] = system: Bacillus subtilis; test: Antimicrobial activity against Bacillus subtilis ATCC 6633 at 400 ug after 18 hrs by disk diffusion method; details: ATCC 6633, 18 h, read-out: DIZ
[19] = system: Bacillus cereus; test: Antimicrobial activity against Bacillus cereus ATCC 11778 at 400 ug after 18 hrs by disk diffusion method; details: ATCC 11778, 18 h, read-out: DIZ
[20] = system: Enterococcus hirae; test: Antimicrobial activity against Enterococcus hirae ATCC 10541 at 400 ug after 18 hrs by disk diffusion method
[21] = system: Micrococcus luteus; test: Antimicrobial activity against Micrococcus luteus ATCC 9341 at 400 ug after 18 hrs by disk diffusion method
[22] = system: Micrococcus luteus; test: Antimicrobial activity against Micrococcus luteus ATCC 10240 at 400 ug after 18 hrs by disk diffusion method; details: ATCC 10240, 18 h, read-out: DIZ
[23] = system: Staphylococcus aureus; test: Antimicrobial activity against Staphylococcus aureus ATCC 25923 at 400 ug after 18 hrs by disk diffusion method; details: ATCC 25923, 18 h, read-out: DIZ
[24] = system: Staphylococcus aureus; test: Antimicrobial activity against Staphylococcus aureus ATCC 6538 at 400 ug after 18 hrs by disk diffusion method; details: ATCC 6538, 18 h, read-out: DIZ
[25] = system: Staphylococcus aureus; test: Antimicrobial activity against Staphylococcus aureus ATCC 29213 at 400 ug after 18 hrs by disk diffusion method; details: ATCC 29213, 18 h, read-out: DIZ
[26] = system: Staphylococcus aureus; test: Antimicrobial activity against Staphylococcus aureus NCTC 4163 after 18 hrs by twofold dilution technique; details: NCTC 4163, 18 h
[27] = system: Staphylococcus aureus; test: Antimicrobial activity against Staphylococcus aureus ATCC 25923 after 18 hrs by twofold dilution technique; details: ATCC 25923, 18 h
[28] = system: Staphylococcus aureus; test: Antimicrobial activity against Staphylococcus aureus ATCC 6538 after 18 hrs by twofold dilution technique; details: ATCC 6538, 18 h
[29] = system: Staphylococcus aureus; test: Antimicrobial activity against Staphylococcus aureus ATCC 29213 after 18 hrs by twofold dilution technique; details: ATCC 29213, 18 h
[30] = system: Staphylococcus epidermidis; test: Antimicrobial activity against Staphylococcus epidermidis ATCC 12228 by twofold dilution technique
[31] = system: Bacillus subtilis; test: Antimicrobial activity against Bacillus subtilis ATCC 6633 after 18 hrs by twofold dilution technique; details: ATCC 6633, 18 h
[32] = system: Bacillus cereus; test: Antimicrobial activity against Bacillus cereus ATCC 11778 after 18 hrs by twofold dilution technique; details: ATCC 11778, 18 h
[33] = system: Enterococcus hirae; test: Antimicrobial activity against Enterococcus hirae ATCC 10541 after 18 hrs by twofold dilution technique; details: ATCC 10541, 18 h
[34] = system: Micrococcus luteus; test: Antimicrobial activity against Micrococcus luteus ATCC 9341 after 18 hrs by twofold dilution technique; details: ATCC 9341, 18 h
[35] = system: Micrococcus luteus; test: Antimicrobial activity against Micrococcus luteus ATCC 10240 by twofold dilution technique
[36] = system: Staphylococcus aureus; test: Antimicrobial activity against methicillin-resistant Staphylococcus aureus 136/6 by twofold dilution technique
[37] = system: Staphylococcus aureus; test: Antimicrobial activity against Methicillin susceptible Staphylococcus aureus 206/7 by twofold dilution technique
[38] = system: Staphylococcus aureus; test: Antimicrobial activity against Methicillin susceptible Staphylococcus aureus 207/7 by twofold dilution technique
[39] = system: Staphylococcus aureus; test: Antimicrobial activity against Methicillin susceptible Staphylococcus aureus 208/7 by twofold dilution technique
[40] = system: Staphylococcus aureus; test: Antimicrobial activity against Methicillin susceptible Staphylococcus aureus 212/7 by twofold dilution technique

SMILES	MIC [1] [mg/L]	MIC [2] [mg/L]	MIC [3] [mg/L]	MIC [4] [mg/L]	MIC [5] [mg/L]	MIC [6] [mg/L]	MIC [7] [mg/L]	MIC [8] [mg/L]	MIC [9] [mg/L]	MIC [10] [mg/L]	MIC [11] [mg/L]	MIC [12] [mg/L]	MIC [13] [mg/L]	MIC [14] [mg/L]	MIC [15] [mg/L]	zone of inhibition at 400 µg/disc [16] [mm]	zone of inhibition at 400 µg/disc [17] [mm]	zone of inhibition at 400 µg/disc [18] [mm]	zone of inhibition at 400 µg/disc [19] [mm]	diameter of the inhibition zone (DIZ) [21]	also measured
CCCCOCCOCCN/C=C1\C(=O)C(O)=C(C(C)C)c2cc(C)c(-c3c(C)cc4c(c3O)/C(=C/NCCOCCOCCCC)C(=O)C(O)=C4C(C)C)c(O)c21	100 (≈ 124 µM)	100 (≈ 124 µM)	100 (≈ 124 µM)	100 (≈ 124 µM)	50 (≈ 62.1 µM)	100 (≈ 124 µM)	100 (≈ 124 µM)	200 (≈ 248 µM)	100 (≈ 124 µM)	200 (≈ 248 µM)	100 (≈ 124 µM)	100 (≈ 124 µM)	200 (≈ 248 µM)	100 (≈ 124 µM)	50 (≈ 62.1 µM)	14	12	12	12	inactive	zone of inhibition at 400 µg/disc ([20]; ATCC 10541, 18 h, read-out: DIZ): 12 mm; zone of inhibition at 400 µg/disc [22]: 12 mm; zone of inhibition at 400 µg/disc [23]: 14 mm; zone of inhibition at 400 µg/disc [24]: 14 mm; zone of inhibition at 400 µg/disc [25]: 13 mm; MIC [26]: 100 mg/L (≈ 124 µM); MIC [27]: 100 mg/L (≈ 124 µM); MIC [28]: 50 mg/L (≈ 62.1 µM); MIC [29]: 50 mg/L (≈ 62.1 µM); MIC [30]: > 400 mg/L; MIC [31]: 200 mg/L (≈ 248 µM); MIC [32]: 100 mg/L (≈ 124 µM); MIC [33]: 100 mg/L (≈ 124 µM); MIC [34]: 100 mg/L (≈ 124 µM); MIC [35]: 200 mg/L (≈ 248 µM); MIC [36]: 50 mg/L (≈ 62.1 µM); MIC [37]: 50 mg/L (≈ 62.1 µM); MIC [38]: 100 mg/L (≈ 124 µM); MIC [39]: 100 mg/L (≈ 124 µM); MIC [40]: 200 mg/L (≈ 248 µM)
COCCOCCOCCN/N=C/c1c(O)c(O)c(C(C)C)c2cc(C)c(-c3c(C)cc4c(C(C)C)c(O)c(O)c(/C=N/NCCOCCOCCOC)c4c3O)c(O)c12	400 (≈ 477 µM)	400 (≈ 477 µM)	400 (≈ 477 µM)	400 (≈ 477 µM)	100 (≈ 119 µM)	400 (≈ 477 µM)	200 (≈ 238 µM)	400 (≈ 477 µM)	400 (≈ 477 µM)	400 (≈ 477 µM)	200 (≈ 238 µM)	400 (≈ 477 µM)	200 (≈ 238 µM)	400 (≈ 477 µM)	100 (≈ 119 µM)	11	14	11	12	inactive	diameter of the inhibition zone (DIZ) [20]: inactive; zone of inhibition at 400 µg/disc [22]: 13 mm; zone of inhibition at 400 µg/disc [23]: 12 mm; zone of inhibition at 400 µg/disc [24]: 11 mm; zone of inhibition at 400 µg/disc [25]: 12 mm; MIC [26]: 200 mg/L (≈ 238 µM); MIC [27]: 200 mg/L (≈ 238 µM); MIC [28]: 200 mg/L (≈ 238 µM); MIC [29]: 200 mg/L (≈ 238 µM); MIC [30]: > 400 mg/L; MIC [31]: > 400 mg/L; MIC [32]: 100 mg/L (≈ 119 µM); MIC [33]: 200 mg/L (≈ 238 µM); MIC [34]: 400 mg/L (≈ 477 µM); MIC [35]: 400 mg/L (≈ 477 µM); MIC [36]: 200 mg/L (≈ 238 µM); MIC [37]: 200 mg/L (≈ 238 µM); MIC [38]: 400 mg/L (≈ 477 µM); MIC [39]: 400 mg/L (≈ 477 µM); MIC [40]: 400 mg/L (≈ 477 µM)
